# Measured values taken from the supplement of paper PMC3974653.
# Counter-ions that a name gives are not always drawn.
# Test system: MTT (mouse pheochromocytoma)
# Experiment: IC50 of cell viability (ATP content)
# Conditions: (24 or 48 h)
# Method in brief: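 MTT mouse pheochromocytoma cells (5 µl of 200,000 cells/ml per well, white 1536-well plates, DMEM with 5% FBS and 1% horse serum) were cultured overnight at 37°C, 5% CO2. They then received 23 nl library compound in DMSO by pintool at 8 concentrations (final 0.5 nM to 46 µM) for 24 or 48 hrs. CellTiter-Glo ATP luminescence was read after 15 minutes. Signals were normalised to positive-control (100% inhibition) and DMSO (0%) wells, and IC50 came from a four-parameter logistic fit.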
row,Structure (SMILES),IC50 of cell viability [µM]
1,CC[C@]1(C)CC(=O)NC1=O [Ethosuximide],> 46
2,CCN1C(=O)N[C@@H](c2ccccc2)C1=O [Ethotoin],> 46
3,CCOC1=CC\2=C(NC(C)(C)\C=C2C)C=C1 [Ethoxyquin],> 46
4,CCOC(C)=O [Ethyl acetate],> 46
5,CCOC(=O)c1ccccc1O [Ethyl salicylate],> 46
6,OCCOc1ccccc1 [Ethylene glycol monophenyl ether],> 46
7,NCCN [Ethylenediamine],> 46
8,CCOC(=O)c1ccc(O)cc1 [Ethylparaben],> 46
9,CCOc1cc(C=O)ccc1O [Ethylvanillin],> 46
10,C#CC1(OC(C)=O)CCC2C3CCC4=CC(OC(C)=O)CCC4C3CCC21C (stereo not drawn) [Ethynodiol Diacetate],> 46
11,CCc1cc(Cl)c(OC)c(C(=O)NC[C@@H]2CCCN2CC)c1O [Eticlopride hydrochloride],> 46
12,CCCN(CC)[C@@H](CC)C(=O)Nc1c(C)cccc1C [Etidocaine],> 46
13,CCc1cccc(CC)c1NC(=O)CN(CC(=O)O)CC(=O)O [Etifenin],> 46
14,CCNC[C@H](O)c1cccc(O)c1 [Etilefrine hydrochloride],> 46
15,CCC(C(N)=O)N1CCCC1=O (stereo not drawn) [Etiracetam],> 46
16,CCOc1ccc(NC(=S)Nc2ccc(OCC)cc2)cc1 [Etocarlida],> 46
17,CCOC(=O)C(\C#N)=C(/C1=CC=CC=C1)C2=CC=CC=C2 [Etocrylene],> 46
18,CCc1cccc2c3c([nH]c12)[C@](CC)(CC(=O)O)OCC3 [Etodolac],> 46
19,O=C(OCCOCCO)c1ccccc1Nc1cccc(C(F)(F)F)c1 [Etofenamate],> 46

row,Structure (SMILES),IC50 of cell viability [µM]
1,CCOC(=O)c1cncn1[C@@H](C)c1ccccc1 [Etomidate],> 46
2,COc1cc([C@H]2c3cc4c(cc3[C@@H](O[C@@H]3O[C@H]5CO[C@@H](C)O[C@@H]5[C@@H](O)[C@H]3O)[C@@H]3COC(=O)[C@H]23)OCO4)cc(OC)c1O [Etoposide],> 46
3,CC12CCC(CC1)C(C)(C)O2 [Eucalyptol],> 46
4,C[C@@H]1C[C@@H](OC(=O)[C@@H](O)c2ccccc2)CC(C)(C)N1C [Eucatropine hydrochloride],> 46
5,C=CCc1ccc(O)c(OC)c1 [Eugenol],> 46
6,CC(=O)OCC(CCn1cnc2cnc(N)nc21)COC(C)=O [FAMCICLOVIR],> 46
7,NC(N)=Nc1nc(CSCC/C(N)=N/[S+](N)(=O)[O-])cs1 [FAMOTIDINE],> 46
8,COP(=S)(OC)Oc1ccc([S+](=O)([O-])N(C)C)cc1 [FAMPHUR],> 46
9,O=[S+]1([O-])c2cccc3cccc(c23)N1CCCN1CCN(c2ccc(F)cc2)CC1 [FANANSERINUM],> 46
10,O=c1[nH]c2cc(C(F)(F)F)c(N3CCOCC3)cc2n(CP(=O)(O)O)c1=O [FANAPANELUM],> 46
11,O=C1CC[C@H](C(=O)N2CCCCC2)N1 [FASORACETAM HYDRATE],> 46
12,NC(=O)OCC(COC(N)=O)c1ccccc1 [FELBAMATE],> 46
13,CCOC(=O)Cc1ccc(-c2ccccc2)cc1 [FELBINAC ETHYL],> 46
14,NCCCCC(NC(=O)C1CCCN1C(=O)C1CSSCC(N)C(=O)NC(Cc2ccccc2)C(=O)NC(Cc2ccccc2)C(=O)NC(CCC(N)=O)C(=O)NC(CC(N)=O)C(=O)N1)C(=O)NCC(N)=O (stereo not drawn) [FELYPRESSIN],> 46
15,Nc1ccc(C(=O)Oc2ccccc2)c(O)c1 [FENAMISAL],> 46
16,CC12CCC(C1)C(C)(C)C2=O (stereo not drawn) [FENCHONE],> 46
17,CCCC[C@H](O)c1ccccc1 [FENIPENTOL],> 46
18,Cn1cc(O)nc1NC(=O)Nc1cccc(Cl)c1 [FENOBAMUM],> 46
19,Oc1ccc(C2CNCCc3c2cc(O)c(O)c3Cl)cc1 (stereo not drawn) [FENOLDOPAM],> 46
